What was measured:
[1] = tested on: carbachol (CCh) sensitive ion channel; assay: Extracellular potential (voltage noise) recording of HEK cells with the instrument of Example 1; format: cell-based, human; conditions: HEK-293 cells; Ringer's solution replaced with Ringer's solution containing CCh 100 μM; FIG. 11 between F1 and G1
Protocol: (§1) The solution holding section 17 was filled with a culture fluid and 8000 HEK cells are seeded in the holding section in dispersion. The culture fluid used was HEPES buffer DMEM+10 wt % FBS. A cell was sucked from the back surface to be thereby fitted into the hole and thereafter, the culture fluid was replaced with a measurement solution. A composition of the measurement solution was such that Ringer's solution was contained as a base, a Ca concentration was adjusted to 2 mM and an osmotic pressure was set to […].
FIG. 11 is a graph showing a voltage noise when the above Ringer's solution was replaced with a Ringer's solution containing CCh 100 μM using Example 1. […] It was recognized that a voltage noise is increased by CCh dropping (in FIG. 11, between F1 and G1). On the other hand, in FIG. 12, there is shown results obtained by conducting a similar experiment in a convention method (Comparative Example 1). The measurement was obtained in a procedure in which a first stage amplification in the preamplifier was multiplication by a factor of 100 and thereafter further amplified by a factor of 100. LPF was set at 5 kHz. A medicine (CCh) was dropped only for a time expressed with an open square in the figure.

[2] = tested on: carbachol (CCh) sensitive ion channel; assay: Intracellular potential response of an HEK cell by the patch clamp method (Comparative Example 2); format: cell-based, human; conditions: HEK-293 cell expressing CCh sensitive ion channel; CCh 100 μM; in 6 sec after CCh is dropped; glass patch pipette
Protocol: as §1
In FIG. 13, as Comparative Example 2, there is shown results obtained by measurement of a response of an intracellular potential in an HEK cell for the same medicine in a similar way while a glass patch pipette is attached to the cell using a patch clamp method, which is a conventional method for measurement of an intracellular potential. A CCh concentration was 100 μM in a similar way. […] There is observed a noise change (from F to G in FIG. 13) due to a CCh sensitive channel response.

With C[N+](C)(C)CCOC(N)=O [CCh, carbachol] the “Voltage noise change on CCh dropping” value [1] was “increased” and the “Depolarization of intracellular potential” value [2] was “about 10 mV”.
